Laboratory results from PubChem BioAssay (NCI).
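Compound exposure: 48 hours, 5 concentrations, 96-well plates. GI50 marks 50% less growth. TGI is the concentration that stops growth completely.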

Experiments:
Test in all cases: NCI anticancer screen, dose series, 48 h
786-0 renal = test system: 786-0 renal
A498 renal = test system: A498 renal
A549 NSCLC = test system: A549 NSCLC
ACHN renal = test system: ACHN renal
BT-549 breast = test system: BT-549 breast
CAKI-1 renal = test system: CAKI-1 renal
CCRF-CEM leukemia = test system: CCRF-CEM leukemia
COLO 205 colon = test system: COLO 205 colon
DU-145 prostate = test system: DU-145 prostate
EKVX NSCLC = test system: EKVX NSCLC
HCC-2998 colon = test system: HCC-2998 colon
HCT-116 colon = test system: HCT-116 colon
HCT-15 colon = test system: HCT-15 colon
HL-60(TB) leukemia = test system: HL-60(TB) leukemia
HOP-62 NSCLC = test system: HOP-62 NSCLC
HOP-92 NSCLC = test system: HOP-92 NSCLC
HS 578T breast = test system: HS 578T breast
HT29 colon = test system: HT29 colon
IGROV1 ovarian = test system: IGROV1 ovarian
K-562 leukemia = test system: K-562 leukemia
KM12 colon = test system: KM12 colon
LOX IMVI melanoma = test system: LOX IMVI melanoma
M14 melanoma = test system: M14 melanoma
MALME-3M melanoma = test system: MALME-3M melanoma
MCF7 breast = test system: MCF7 breast
MDA-MB-231 breast = test system: MDA-MB-231 breast
MDA-MB-435 = test system: MDA-MB-435
MDA-MB-468 breast = test system: MDA-MB-468 breast
MOLT-4 leukemia = test system: MOLT-4 leukemia
NCI-H226 lung = test system: NCI-H226 lung
NCI-H23 lung = test system: NCI-H23 lung
NCI-H460 lung = test system: NCI-H460 lung
NCI-H522 lung = test system: NCI-H522 lung
NCI/ADR-RES ovarian = test system: NCI/ADR-RES ovarian
OVCAR-3 ovarian = test system: OVCAR-3 ovarian
OVCAR-4 ovarian = test system: OVCAR-4 ovarian
OVCAR-5 ovarian = test system: OVCAR-5 ovarian
OVCAR-8 ovarian = test system: OVCAR-8 ovarian
PC-3 prostate = test system: PC-3 prostate
RPMI-8226 leukemia = test system: RPMI-8226 leukemia
RXF 393 renal = test system: RXF 393 renal
SF-268 CNS = test system: SF-268 CNS
SF-295 CNS = test system: SF-295 CNS
SF-539 CNS = test system: SF-539 CNS
SK-MEL-2 melanoma = test system: SK-MEL-2 melanoma
SK-MEL-28 melanoma = test system: SK-MEL-28 melanoma
SK-MEL-5 melanoma = test system: SK-MEL-5 melanoma
SK-OV-3 ovarian = test system: SK-OV-3 ovarian
SN12C renal = test system: SN12C renal
SNB-19 CNS = test system: SNB-19 CNS
SNB-75 CNS = test system: SNB-75 CNS
SR leukemia = test system: SR leukemia
SW-620 colon = test system: SW-620 colon
T-47D breast = test system: T-47D breast
TK-10 renal = test system: TK-10 renal
U251 CNS = test system: U251 CNS
UACC-257 melanoma = test system: UACC-257 melanoma
UACC-62 melanoma = test system: UACC-62 melanoma
UO-31 renal = test system: UO-31 renal

## N#C/C(=C1/C(=O)Nc2ccccc21)c1nnc(NC(=O)c2ccc(-n3c(=O)[nH]c4ccccc4c3=O)cc2)s1
786-0 renal
  GI50: > 100 µM
  TGI: > 100 µM
A498 renal
  GI50: > 100 µM
  TGI: > 100 µM
A549 NSCLC
  GI50: 54.7 µM
  TGI: > 100 µM
ACHN renal
  GI50: 53.8 µM
  TGI: > 100 µM
BT-549 breast
  GI50: 39.4 µM
  TGI: > 100 µM
CAKI-1 renal
  GI50: 39 µM
  TGI: > 100 µM
CCRF-CEM leukemia
  GI50: 22.2 µM
  TGI: 64.5 µM
COLO 205 colon
  GI50: 22.1 µM
  TGI: 79.8 µM
DU-145 prostate
  GI50: 53.6 µM
  TGI: > 100 µM
EKVX NSCLC
  GI50: 46.1 µM
  TGI: > 100 µM
HCC-2998 colon
  GI50: 39.8 µM
  TGI: > 100 µM
HCT-116 colon
  GI50: 32.6 µM
  TGI: > 100 µM
HCT-15 colon
  GI50: 27.3 µM
  TGI: > 100 µM
HL-60(TB) leukemia
  GI50: 13.6 µM
  TGI: 45.4 µM
HOP-62 NSCLC
  GI50: > 100 µM
  TGI: > 100 µM
HOP-92 NSCLC
  GI50: 33.8 µM
  TGI: > 100 µM
HS 578T breast
  GI50: 27.4 µM
  TGI: > 100 µM
HT29 colon
  GI50: 31.7 µM
  TGI: > 100 µM
IGROV1 ovarian
  GI50: 40.5 µM
  TGI: > 100 µM
K-562 leukemia
  GI50: 26.1 µM
  TGI: > 100 µM
KM12 colon
  GI50: 33.4 µM
  TGI: > 100 µM
LOX IMVI melanoma
  GI50: 21.6 µM
  TGI: > 100 µM
M14 melanoma
  GI50: 41.2 µM
  TGI: > 100 µM
MALME-3M melanoma
  GI50: 45.6 µM
  TGI: > 100 µM
MCF7 breast
  GI50: 18.3 µM
  TGI: > 100 µM
MDA-MB-231 breast
  GI50: 38.4 µM
  TGI: > 100 µM
MDA-MB-435
  GI50: 17.2 µM
  TGI: 35.8 µM
MDA-MB-468 breast
  GI50: 11 µM
  TGI: 56.1 µM
MOLT-4 leukemia
  GI50: 20.7 µM
  TGI: 60.9 µM
NCI-H226 lung
  GI50: 17.6 µM
  TGI: > 100 µM
NCI-H23 lung
  GI50: 45.2 µM
  TGI: > 100 µM
NCI-H460 lung
  GI50: 26 µM
  TGI: > 100 µM
NCI-H522 lung
  GI50: 13.2 µM
  TGI: 71.7 µM
NCI/ADR-RES ovarian
  GI50: 33.8 µM
  TGI: > 100 µM
OVCAR-3 ovarian
  GI50: 10.9 µM
  TGI: 71.6 µM
OVCAR-4 ovarian
  GI50: 23.1 µM
  TGI: > 100 µM
OVCAR-5 ovarian
  GI50: > 100 µM
  TGI: > 100 µM
OVCAR-8 ovarian
  GI50: 67.6 µM
  TGI: > 100 µM
PC-3 prostate
  GI50: 30.3 µM
  TGI: > 100 µM
RPMI-8226 leukemia
  GI50: 27.1 µM
  TGI: > 100 µM
RXF 393 renal
  GI50: 14.5 µM
  TGI: > 100 µM
SF-268 CNS
  GI50: 34.9 µM
  TGI: > 100 µM
SF-295 CNS
  GI50: 45.9 µM
  TGI: > 100 µM
SF-539 CNS
  GI50: 48.3 µM
  TGI: > 100 µM
SK-MEL-2 melanoma
  GI50: > 100 µM
  TGI: > 100 µM
SK-MEL-28 melanoma
  GI50: 65.9 µM
  TGI: > 100 µM
SK-MEL-5 melanoma
  GI50: 32.2 µM
  TGI: > 100 µM
SK-OV-3 ovarian
  GI50: > 100 µM
  TGI: > 100 µM
SN12C renal
  GI50: 58.3 µM
  TGI: > 100 µM
SNB-19 CNS
  GI50: > 100 µM
  TGI: > 100 µM
SNB-75 CNS
  GI50: 16.2 µM
  TGI: > 100 µM
SR leukemia
  GI50: 33.1 µM
  TGI: > 100 µM
SW-620 colon
  GI50: 29.5 µM
  TGI: > 100 µM
T-47D breast
  GI50: 11.2 µM
  TGI: > 100 µM
TK-10 renal
  GI50: > 100 µM
  TGI: > 100 µM
U251 CNS
  GI50: > 100 µM
  TGI: > 100 µM
UACC-257 melanoma
  GI50: 46.2 µM
  TGI: > 100 µM
UACC-62 melanoma
  GI50: 47.4 µM
  TGI: > 100 µM
UO-31 renal
  GI50: 31.8 µM
  TGI: > 100 µM
